What was measured:
[1] = test system: dermal herpes simplex virus-1 (HSV-1) infection; test: Dermal HSV-1 infection in guinea pigs, topical treatment (lesion number, lesion area, skin virus titer); format: in vivo, guinea pig (Female Hartley outbred); conditions: for effectiveness in reducing dermal HSV-1 virus infection compared with acyclovir and phosphotriester prodrugs (in words): dermal HSV-1 infection; for lesion number, lesion area and lesion virus titer (summary in words): guinea pigs with dermal HSV-1 infections, compared to vehicle/placebo
Procedure: The formulation for Prodrug 1 contained 5% EL-620 EMULPHOR (polyoxyethylated castor oil) (Rhone Poluenc), 5% CARBOPOL (Carboxypolymethylene, sodium salt) (B. F. Goodrich), 10% ethanol and 2% by weight Prodrug 1. The balance of the formulation consisted of water.
EL-620 EMULPHOR and water were mixed and ultrasonicated to give a clear emulsion, to which the ethanol was added. The prodrug was then added, and the mixture was ultrasonicated. The sodium carbopol was then added to the emulsion and mixed until to homogeneity.
The placebo was prepared identically to the pharmaceutical compositions except that the prodrugs were omitted.
The pharmaceutical compositions were stored at room temperature.
Female Hartley outbred guinea pigs, 400 to 450 grams, were obtained from Charles River Breeding Labs, Wilmington, Mass. Animals were anesthetized with 25 mg/kg ketamine and 5 mg/kg xylazine SQ. Hair on the dorsum from the shoulders to the rump was removed with electric clippers followed by two 5-10 minute applications of a chemical depilatory. A grid of four areas was demarcated with a pen on both sides of the spine at levels corresponding to mid back and rump.
Undiluted HSV-1 virus stock (0.035 ml) was applied to each different area and introduced through the skin at well-spaced sites at ten activations of a six-pronged spring-loaded vaccination instrument (Sterneedle, Pan Ray Division, Ormont Drug, Englewood, N.J.). The day of inoculation is Day 0. Approximately 250 mg of drug or placebo was applied to the areas according to the dosing regimen on Days 1, 2 and 3. Eight guinea pigs were used during the experiments allowing eight comparisons between each drug and its placebo.
On Day 4 regrown hair on the dorsum of the guinea pigs was removed with one 3-4 minute application of a chemical depilatory. HSV lesions were counted and Polaroid pictures of the animals' backs were taken. The animals were sacrificed using CO2 gas and the full thickness skin of the back was removed by dissection. The square of the skin from each of the four treatment areas was placed into 15 mls of tissue culture medium with 2% FES in an ice bath. The samples were then homogenized in a stomacher Lab Blender 80 (Tekmar Co.). Debris was pelleted by centrifugation and the supernatants collected and frozen at -70° C. until assay for infectivity by plaque formation in VERO cells.
The mean and standard deviation for number of lesions, total lesion area and lesion virus titer were computed. Paired data (drug/vehicle) were evaluated by the Wilcoxon signed-rank test using percent differences between log10 derivatives of mean lesions severity at drug-treated sites compared to the Vehicle-treated sites.
Prodrug 2 was formulated as described in Example 1. One Hartley guinea pig was inoculated with HSV-1 as described in Example 1. The guinea pig was treated with Prodrug 2 according to the protocol used in Example 1 for Prodrug 1.

pig liver esterase = test: Incubation with pig liver esterase in phosphate buffered D2O, NMR; format: in vitro ADME
Description: This assay is described in Glazier, WO 91/19721 entitled "Phosphorus Prodrugs" and can be used to determine suitable hydroxyl or amino protecting groups which can be cleaved in vivo. The entire teachings of […] are incorporated herein by reference. It is to be understood that there are other in vitro assays known to one of ordinary skill in the art employing esterases, amidases or enzymes capable of cleaving carbonate, carbamate, ester and amide groups which can also be used to determine suitable protecting groups.

herpes simplex labialis = conditions: cited from earlier work
[2] = guinea pigs, topical, 2% by weight Prodrug 1 formulation, Days 1, 2 and 3, vs placebo (p<0.01)

| SMILES | effectiveness in reducing dermal HSV-1 virus infection compared with acyclovir and phosphotriester prodrugs (in words) [1] | lesion number, lesion area and lesion virus titer (summary in words) [1] | reduction in lesion area [1, 2] [%] | reduction in lesion number [1, 2] [%] | reduction in skin viral titers [1, 2] [%] | degradation by esterase, products by NMR (pig liver esterase) | reduction in lesion number, lesion area and skin viral titers (in words) ([1]; one Hartley guinea pig, formulated as in Example 1, compared with Prodrug 1 in Example 1) | effectiveness of oral acyclovir in cold sores (herpes simplex labialis; oral) | response of cold sores to topical acyclovir (herpes simplex labialis; topical) |
| --- | --- | --- | --- | --- | --- | --- | --- | --- | --- |
| COC(=O)CC(OP(=O)(O)OCCOCn1cnc2c(=O)[nH]c(N)nc21)c1ccc(OC(=O)C(C)(C)C)cc1 (centres unmarked) [Prodrug 1, Sodium 2-((9-Guanylyl)methyl)oxy)ethyl 1-(4-((2,2-dimethylpropionyl)oxy)-phenyl)-2-((methoxy)carbonyl)ethyl phosphate] | more Effective in Reducing Dermal HSV-1 Virus Infection than Acyclovir | dramatic reduction in lesion number, in lesion area and in lesion virus titer | 79 | 72 | 93 | degraded to acyclovir monophosphate and p-hydroxycinnamic |  |  |  |
| COC(=O)CC(OP(=O)(O)OCCOCn1cnc2c(=O)[nH]c(N)nc21)c1ccc(OC(C)=O)cc1 (centres unmarked) [Prodrug 2, sodium 2-((9-guanylyl)methyl)oxy)ethyl-1-(4-acetoxyphenyl)-2-((methoxy)carbonyl)ethyl phosphate] | more Effective in Reducing Dermal HSV-1 Virus Infection than Acyclovir | dramatic reduction in lesion number, in lesion area and in lesion virus titer |  |  |  |  | comparable reduction in lesion number, lesion area and in skin viral titers |  |  |
| Nc1nc2c(ncn2COCCO)c(=O)[nH]1 [acyclovir] |  |  |  |  |  |  |  | only partially effective | do not respond |

Source: US6214811A, “Acyclovir diester derivatives” (Drug Innovation & Design, Inc., priority 2000, dated 2001)
